Values of other authors as cited in patent publication US20260256747A1, “ARYL-TRIAZOLYL AND RELATED GPR84 ANTAGONISTS AND USES THEREOF” (Liminal BioSciences Limited, priority 2022, published 2026).

Tested on: mouse dextran sodium sulfate-induced chronic inflammatory bowel disease model
Conditions: once-daily doses of 3 and 10 mg/kg; efficacy similar to sulfasalazine; cited from earlier work

## O=c1nc(OC[C@@H]2COCCO2)cc2n1CCc1cc(C#CC3CC3)ccc1-2 [GLPG1205]
  disease activity index score: reduced
  neutrophil infiltration: reduced
